From patent publication US10314851B2, “Metakaryocidal treatments” (Massachusetts Institute of Technology, priority 2014, dated 2019)
Where two headings read alike, the source gives them in different places.

System: HT-29 cells
Text: Applicants next sought means to test nominated drugs (also referred to herein as candidate agents) using human cell cultures, particularly cell cultures derived from human tumors in which they discovered metakaryotic cells driving net growth and differentiation of such cultures by symmetric and asymmetric amitotic divisions.
The metakaryotic and pre-metakaryotic cells of cell lines derived from human tumors are capable of unlimited division when plated as single cells on plastic or glass surfaces. However, most cells in such cell lines are eukaryotic cells capable of limited cell growth which growth cannot give rise to immortal colonies or populations of cells. This quality permits the line to be used in quantitative assays of cell killing important for distinguishing among agents and regimens that kill metakaryotic cells in preference to eukaryotic cells and vice versa.
Single cells betray different fates. […] Applicants interpret these colonies and derived immortal populations to be the descendants of single metakaryotic or pre-metakaryotic stem cells.
Colonies of limited size between 1 and 2^11 cells are interpreted to be the products of growth of transition cell tiers three through eleven.
In this reproducible behavior the human tumor cell lines offered a means to test agents for metakaryocidal activity: metakaryocidal agents and regimens would reduce or eliminate the appearance of large colonies that could be propagated by serial trypsinized transfer. […] An example of this kind of assay is illustrated in FIGS. 1, 2 and 3.
In particular drugs evaluated were reported to overcome “multidrug resistance” giving special priority to drugs that suppressed “multidrug resistance” (MDR).
Shown in FIGS. 1-3 are images of quantitative trials of different regimens (initial concentration, duration of exposure) of metformin in clonal assays using HT-29 cells. […] FIG. 1 is a photograph illustrating the experimental design for testing metformin as a metakaryocide in vitro.
FIG. 2 depicts a table of the recorded colony counts on each of the flasks of the first image.
The Y-axis is the number of colonies on each test flask enumerated in FIG. 2 while the X-axis is the product of metformin concentration (micromolar) times the duration of the HT-29 cells to the drug (weeks).

Compound | concentration above which surviving large colonies are not immortal and do not contain metakaryotic stem cells (HT-29, FIG. 1, five weeks) [µM] | concentration x duration of exposure at which elimination of metakaryotic cell-containing immortal colonies is reached (HT-29, FIG. 3) [micromolar-weeks] | concentration x duration of exposure below which killing of mortal colonies is not observed (HT-29, FIG. 3) | survival fraction of the metformin-sensitive population (metakaryotic cells) (HT-29, at ~200 μM weeks) | total large colony numbers reduced to a level less than in untreated control flasks (HT-29, colonies five weeks after seeding, treated from day one for one, two or five weeks, concentration x duration treatments shown with green counts in FIG. 2) | concentration at which surviving large colonies are not immortal and do not contain metakaryotic stem cells (HT-29, five weeks exposure) [µM] | concentration above which surviving large colonies are not immortal and do not contain metakaryotic stem cells (HT-29, one week exposure) [µM] | expected survival of metakaryotic cells (extrapolated from FIG. 3, treatment of ~400 μM weeks) | metakaryocidal effect (survival vs. concentration x duration function) (tests of some sixteen drugs, compared with metformin)
CN(C)C(=N)N=C(N)N [metformin] | > 100 | ~200 | about 2000 micromolar weeks | 10^−2 | about 10% | 800 | > 1600 | 10^−4 | –
COC(=O)[C@H]1[C@H]2C[C@@H]3c4[nH]c5cc(OC)ccc5c4CCN3C[C@H]2C[C@@H](OC(=O)c2cc(OC)c(OC)c(OC)c2)[C@@H]1OC [reserpine] | – | – | – | – | – | – | – | – | no detectable effect as a metakaryocide
